From ChEMBL document CHEMBL1138978, “Studies toward the discovery of the next generation of antidepressants. Part 5: 3,4-Dihydro-2H-benzo[1,4]oxazine derivatives with dual 5-HT1A receptor and serotonin transporter affinity” (Bioorg Med Chem Lett, 2006)

Columns and labels:
[1] = biological target: T1, 5-hydroxytryptamine receptor 1A (Homo sapiens) (UniProt P08908); test: Agonist activity assessed by stimulation of [35S]GTPgammaS binding in CHO cells expressing 5HT1A receptor relative to 5HT; format: functional, cell-based
T1 sequence (whole entry): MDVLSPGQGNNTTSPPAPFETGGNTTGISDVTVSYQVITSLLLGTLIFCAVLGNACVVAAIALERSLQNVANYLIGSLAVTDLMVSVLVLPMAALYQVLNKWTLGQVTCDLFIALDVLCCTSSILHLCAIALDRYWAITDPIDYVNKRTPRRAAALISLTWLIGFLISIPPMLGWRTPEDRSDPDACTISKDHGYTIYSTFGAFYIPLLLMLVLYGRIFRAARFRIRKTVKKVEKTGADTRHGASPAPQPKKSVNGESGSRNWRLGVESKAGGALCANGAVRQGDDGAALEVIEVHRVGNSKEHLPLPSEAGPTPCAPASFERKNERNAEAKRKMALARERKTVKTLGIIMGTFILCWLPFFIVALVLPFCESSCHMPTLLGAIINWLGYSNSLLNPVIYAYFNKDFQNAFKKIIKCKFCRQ

[2] = biological target: Sodium-dependent serotonin transporter (Rattus norvegicus, UniProt P31652); test: Displacement of [3H]paroxetine from rat cortical 5-HT reuptake
[3] = biological target: T2, 5-hydroxytryptamine receptor 1A (Homo sapiens, UniProt P08908); test: Displacement of [3H]8-OH-DPAT from 5HT1A receptor expressed in CHO cells; format: cell-based
T2 sequence (P08908 whole entry): T1 sequence (whole entry)

[4] = biological target: T2, 5-hydroxytryptamine receptor 1A; test: Intrinsic activity assessed by stimulation of [35S]GTP-gamma-S binding in CHO cells expressing 5HT1A receptor; format: functional, cell-based
[5] = biological target: Adrenergic receptor alpha-1 (Rattus norvegicus) (UniProt P15823+P23944+P43140); test: Inhibition of [3H]prazosin binding to adrenergic alpha-1 receptor in rat cortical membrane at 100 nM; format: cell membranes
[6] = biological target: T3, Adrenergic receptor alpha-1 (Rattus norvegicus, UniProt P15823+P23944+P43140); test: Displacement of [3H]prazosin from adrenergic alpha-1 receptor in rat cortical membrane; format: cell membranes
T3 sequence (P15823 whole entry): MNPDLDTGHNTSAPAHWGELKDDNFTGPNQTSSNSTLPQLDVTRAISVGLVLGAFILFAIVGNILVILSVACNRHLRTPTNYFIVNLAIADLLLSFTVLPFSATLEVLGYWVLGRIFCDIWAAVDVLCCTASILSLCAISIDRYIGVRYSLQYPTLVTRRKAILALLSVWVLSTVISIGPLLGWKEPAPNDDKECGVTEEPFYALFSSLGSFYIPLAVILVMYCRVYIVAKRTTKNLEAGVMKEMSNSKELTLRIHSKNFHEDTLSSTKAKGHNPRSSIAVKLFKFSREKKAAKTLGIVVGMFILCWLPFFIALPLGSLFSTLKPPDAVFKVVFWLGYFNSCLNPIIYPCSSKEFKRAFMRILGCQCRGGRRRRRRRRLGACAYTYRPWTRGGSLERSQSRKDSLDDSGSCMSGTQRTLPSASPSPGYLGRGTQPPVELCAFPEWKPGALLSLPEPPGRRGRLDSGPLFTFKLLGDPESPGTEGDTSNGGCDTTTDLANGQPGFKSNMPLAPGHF
T3 sequence (P23944 whole entry): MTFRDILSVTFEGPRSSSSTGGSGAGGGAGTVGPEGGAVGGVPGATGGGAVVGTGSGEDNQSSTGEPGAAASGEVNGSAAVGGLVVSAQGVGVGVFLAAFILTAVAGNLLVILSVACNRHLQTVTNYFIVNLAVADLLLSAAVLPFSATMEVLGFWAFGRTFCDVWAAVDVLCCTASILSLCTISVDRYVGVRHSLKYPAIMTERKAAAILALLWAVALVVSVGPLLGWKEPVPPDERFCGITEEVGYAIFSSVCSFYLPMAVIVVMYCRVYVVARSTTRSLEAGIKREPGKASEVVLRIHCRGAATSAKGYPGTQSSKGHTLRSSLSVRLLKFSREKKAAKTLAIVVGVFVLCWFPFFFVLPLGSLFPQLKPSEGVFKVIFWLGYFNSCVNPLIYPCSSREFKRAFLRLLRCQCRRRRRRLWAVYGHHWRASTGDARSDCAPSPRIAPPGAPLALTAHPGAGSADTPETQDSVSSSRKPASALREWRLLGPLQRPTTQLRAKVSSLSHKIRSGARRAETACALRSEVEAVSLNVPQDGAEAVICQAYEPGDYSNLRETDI
T3 sequence (P43140 whole entry): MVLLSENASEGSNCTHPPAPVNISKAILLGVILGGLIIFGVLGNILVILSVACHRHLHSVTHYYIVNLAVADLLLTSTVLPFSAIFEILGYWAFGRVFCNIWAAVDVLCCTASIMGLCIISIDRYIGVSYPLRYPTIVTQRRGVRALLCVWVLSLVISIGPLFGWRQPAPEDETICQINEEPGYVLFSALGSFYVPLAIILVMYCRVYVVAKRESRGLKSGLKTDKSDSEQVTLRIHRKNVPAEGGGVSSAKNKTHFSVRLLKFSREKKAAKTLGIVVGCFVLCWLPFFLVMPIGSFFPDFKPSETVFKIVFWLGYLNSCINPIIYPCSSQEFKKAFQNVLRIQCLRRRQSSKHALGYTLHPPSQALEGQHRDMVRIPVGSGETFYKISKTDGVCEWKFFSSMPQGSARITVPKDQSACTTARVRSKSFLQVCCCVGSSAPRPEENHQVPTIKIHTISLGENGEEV

[7] = biological target: Sodium-dependent serotonin transporter (Rattus norvegicus) (UniProt P31652); test: Inhibition of [3H]paroxetine binding to rat cortical 5-HT reuptake at 100 nM
Sequence of Sodium-dependent serotonin transporter (Rattus norvegicus) (P31652 whole entry): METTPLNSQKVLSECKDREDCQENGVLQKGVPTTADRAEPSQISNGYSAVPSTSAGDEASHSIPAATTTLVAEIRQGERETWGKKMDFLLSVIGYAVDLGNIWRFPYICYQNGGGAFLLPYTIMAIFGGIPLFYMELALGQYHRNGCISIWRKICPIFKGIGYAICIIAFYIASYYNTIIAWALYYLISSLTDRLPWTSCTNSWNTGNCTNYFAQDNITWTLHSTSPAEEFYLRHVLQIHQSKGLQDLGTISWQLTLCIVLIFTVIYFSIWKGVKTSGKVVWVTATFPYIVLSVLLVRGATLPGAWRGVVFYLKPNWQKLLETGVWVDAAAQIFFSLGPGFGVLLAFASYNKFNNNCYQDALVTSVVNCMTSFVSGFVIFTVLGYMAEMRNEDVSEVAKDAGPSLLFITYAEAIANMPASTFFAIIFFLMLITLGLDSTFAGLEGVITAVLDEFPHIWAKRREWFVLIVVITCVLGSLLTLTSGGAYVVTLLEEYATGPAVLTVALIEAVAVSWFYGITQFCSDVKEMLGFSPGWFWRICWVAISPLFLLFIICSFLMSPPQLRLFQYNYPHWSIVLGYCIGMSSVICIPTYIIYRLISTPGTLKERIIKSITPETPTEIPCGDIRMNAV

Sequence of Sodium-dependent serotonin transporter (P31652 whole entry): as above

Structure (SMILES) | Emax [1] | Ki [2] | Ki [3] | EC50 [4] | inhibition [5] | Ki [6] | inhibition [7]
CC(C)CN1CC(CNCCc2c[nH]c3ccc(F)cc23)Oc2ccccc21 (centres undefined) | 88% | 0.0515 µM | 0.00815 µM | 0.329 µM |  |  | 
CC(C)N1CC(CNCCCc2c[nH]c3ccccc23)Oc2ccccc21 (centres undefined) | 88% | 0.0238 µM | 0.0904 µM | 0.329 µM |  |  | 
CN1CC(CNCCc2c[nH]c3ccc(F)cc23)Oc2ccccc21 (centres undefined) | 80% | 0.0124 µM | 0.00846 µM | 0.167 µM | 26% |  | 
CCCN1CC(CN2CC=C(c3c[nH]c4ccc(F)cc34)CC2)Oc2c(OC)cccc21 (centres undefined) | 92% | 0.0226 µM |  | 0.135 µM |  | 0.5055 µM | 
CCN1CC(CNCCc2c[nH]c3ccc(F)cc23)Oc2ccccc21 (centres undefined) | 100% | 0.0153 µM | 0.0153 µM | 0.09 µM |  |  | 
c1ccc(CN2CC(CNCCCc3c[nH]c4ccccc34)Oc3ccccc32)cc1 (centres undefined) | 64% | 0.109 µM | 0.0761 µM | 1.39 µM |  |  | 
CN1CC(CNCCc2c[nH]c3ccc(F)cc23)Oc2cc(Cl)ccc21 (centres undefined) | 64% | 0.0426 µM | 0.0752 µM | 0.336 µM |  | 0.607 µM | 
Fc1ccc2[nH]cc(CCNCC3CN(Cc4ccccc4)c4ccccc4O3)c2c1 (centres undefined) |  |  | 0.00725 µM |  |  |  | 23%
Fc1ccc2[nH]cc(CCNCC3CNc4ccccc4O3)c2c1 (centres undefined) | 100% | 0.016 µM | 0.011 µM | 0.155 µM |  | 0.07 µM | 
COc1cccc2c1OC(CN1CC=C(c3c[nH]c4ccc(F)cc34)CC1)CN2 (centres undefined) | 35% | 0.00694 µM |  | 0.386 µM |  | 0.0145 µM | 
CN1CC(CNCCc2c[nH]c3ccccc23)Oc2ccccc21 (centres undefined) | 95% | 0.0885 µM | 0.00586 µM | 0.0336 µM | 28% |  | 
COc1cccc2c1OC(CN1CC=C(c3c[nH]c4ccc(F)cc34)CC1)CN2C (centres undefined) | 93% | 0.0126 µM |  | 0.19 µM |  | 0.0965 µM | 
CCN1CC(CN2CC=C(c3c[nH]c4ccc(F)cc34)CC2)Oc2c(OC)cccc21 (centres undefined) | 54% | 0.0132 µM |  | 0.418 µM |  | 0.229 µM | 
c1ccc(N2CC(CNCCc3c[nH]c4ccccc34)Oc3ccccc32)cc1 (centres undefined) |  |  | 0.0302 µM |  |  |  | 23%
COc1ccc2c(c1)OC(CNCCc1c[nH]c3ccc(F)cc13)CN2 (centres undefined) | 56% | 0.0117 µM | 0.103 µM | 0.181 µM |  | 0.0445 µM | 
CCCN1CC(CNCCc2c[nH]c3ccccc23)Oc2ccccc21 (centres undefined) | 100% | 0.0227 µM | 0.0128 µM | 0.196 µM |  | 0.481 µM | 
c1ccc2c(c1)NCC(CNCCc1c[nH]c3ccccc13)O2 (centres undefined) | 96% | 0.0898 µM | 0.00691 µM | 0.0935 µM | 26% |  | 
CC(C)N1CC(CNCCc2c[nH]c3ccc(F)cc23)Oc2ccccc21 (centres undefined) | 90% | 0.0211 µM | 0.00281 µM | 0.191 µM |  |  | 
c1ccc(N2CC(CNCCCc3c[nH]c4ccccc34)Oc3ccccc32)cc1 (centres undefined) |  |  | 0.0758 µM |  |  |  | 7%
C1=C(c2c[nH]c3ccccc23)CCN(CC2CNc3ccccc3O2)C1 (centres undefined) | 62% | 0.00837 µM |  | 1.13 µM |  | 0.0166 µM | 
COc1cccc2c1OC(CNCCc1c[nH]c3ccc(F)cc13)CN2 (centres undefined) | 66% | 0.00313 µM | 0.00931 µM | 0.0522 µM |  | 0.0076 µM | 
Fc1ccc2[nH]cc(CCNCC3CN(c4ccccc4)c4ccccc4O3)c2c1 (centres undefined) |  |  | 0.00714 µM |  | 65% |  | 43%
